Patent US20230393140A1, “BINDING ASSAYS INVOLVING A PLURALITY OF SYNTHETIC COMPOUNDS, TARGETS, AND COUNTER TARGETS” (SRI International, priority 2020, published 2023)
pKd: −log10 of the molar value. Like-named read-outs stand apart in the source and are kept apart here. Numbered stars: 1 amine (or outer) side, 2 acyl side, 3 side chain; on linkers, the order of the positions; unused ones are H or OH. Square brackets hold non-standard residues; d marks the D form. Peptide text beside a SMILES is read from it. * marks the point of attachment. 5FAM = O=C1OC2(c3ccc(O)cc3Oc3cc(O)ccc32)c2ccc(C(=O)*)cc21; NHCH2C6H4(4-CH2CONH2) = NC(=O)Cc1ccc(CN*)cc1; X1 = O=C(Cc1ccc(CN[*:1])cc1)[*:2]

Target: T1, IL-6 (Homo sapiens, UniProt P05231)
T1 construct: purchased Creative Biomart IL6-12H
Assay: MST binding affinity of resynthesized NNP hits to IL-6
Conditions: for Kd: read-out: KD (nM) [95% conf. int], NNP2 library hit, target IL-6, one-site binding model
Protocol: Hit binding affinity to various targets were determined using Microscale Thermophoresis (MST). MST experiments were performed on a Monolith NT.115pico (NanoTemper Technologies GmbH, Munich, Germany). Measurements were performed at room temperature, in triplicate with incubation periods of 15, 30 and 45 minutes. […] Targets were labeled using Nanotemper Monolith 2nd Generation Protein Labeling Kits. RED-MALEIMIDE (Maleimide-647-dye) labeling kit was used for K-Ras and RED-NHS (NHS-647-dye) labeling kit was used for IL-6, IL-6R, TNFα and ASGPR. The buffer for the ASGPR contained 20 mM HEPES pH 7.4, 150 mM NaCl, 10 mM MgCl2, 2 mM CaCl2, 0.05% Pluronic F-127, and 1 mM DTT; for IL-6 contained 20 mM HEPES pH 7.4, 150 mM KCl, 10 mM MgCl2, and 0.1% Pluronic F-127; for the soluble IL-6 receptor 20 mM HEPES pH 7.4, 150 mM NaCl, 10 mM MgCl2, and 0.05% Tween-20; for K-Ras 20 mM HEPES pH 7.4, 150 mM NaCl, 10 mM MgCl2, 0.05% Tween-20 and 1 mM DTT; for TNFα 10 mM HEPES pH 7.4, 150 mM NaCl, 10 mM MgCl2, 0.05% Polysorbate-20. Triplicate data was analyzed using MO.AffinityAnalysis software (NanoTemper Technologies GmbH).

| Structure (SMILES) | pKd (NNP2 library hit, target IL-6, one-site binding model) | Kd [nM] |
| --- | --- | --- |
| CC(C)C[C@H](NC(=O)[C@@H](CCCCN)NC(=O)[C@@H](Cc1c[nH]cn1)NC(=O)Cc1ccc(CNC(=O)[C@H](CC(C)C)NC(=O)[C@@H](CCCNC(=N)N)NC(=O)[C@@H](Cc2c[nH]c3ccccc23)NC(=O)Cc2ccc(CNC(=O)[C@H](Cc3ccccc3)NC(=O)[C@@H](Cc3ccc(O)cc3)NC(=O)[C@@H](Cc3c[nH]cn3)NC(=O)Cc3ccc(CNC(=O)[C@H](CC(C)C)NC(=O)[C@@H](CCCNC(=N)N)NC(=O)[C@@H](CC(C)C)NC(=O)Cc4ccc(CNC(=O)[C@H](Cc5ccccc5)NC(=O)[C@@H](Cc5c[nH]c6ccccc56)NC(=O)[C@@H](CCCNC(=N)N)NC(=O)c5ccc6c(c5)C(=O)OC65c6ccc(O)cc6Oc6cc(O)ccc65)cc4)cc3)cc2)cc1)C(=O)NCc1ccc(CC(=O)N[C@H](C)C(=O)N[C@H](Cc2ccc(O)cc2)C(=O)NCC(=O)NCc2ccc(CC(=O)N[C@H](Cc3c[nH]cn3)C(=O)N[C@H](CCC(=O)O)C(=O)N[C@@H](CC(C)C)C(=O)NCc3ccc(CC(=O)N4CCC[C@@H]4C(=O)N[C@H](CCCNC(=N)N)C(=O)N[C@@H](C)C(=O)NCc4ccc(CC(=O)N[C@H](Cc5ccccc5)C(=O)N[C@H](CCCCN)C(=O)NCC(=O)NCc5ccc(CC(N)=O)cc5)cc4)cc3)cc2)cc1 [IL6-65-4, Fluorescein-(D)Arg-(D)Trp-(L)Phe-PAM-(D)Leu-(D)Arg-(L)Leu-PAM-(D)His-(D)Tyr-(L)Phe-PAM-(D)Trp-(D)Arg-(L)Leu-PAM-(D)His-(D)Lys-(L)Leu-PAM-(D)Ala-(D)Tyr-Gly-PAM-(D)His-(D)Glu-(L)Leu- PAM-(D)Pro-(D)Arg-(L)Ala-PAM-(D)Phe-(D)Lys-Gly-PAM] (5FAM-[dR][dW]F[X1][dL][dR]L[X1][dH][dY]F[X1][dW][dR]L[X1][dH][dK]L[X1][dA][dY]G[X1][dH][dE]L[X1][dP][dR]A[X1][dF][dK]G-{NHCH2C6H4(4-CH2CONH2)}) | 7.43 | – |
| CC(C)C[C@H](NC(=O)[C@@H](CCCNC(=N)N)NC(=O)CNC(=O)Cc1ccc(CNC(=O)[C@H](Cc2ccccc2)NC(=O)[C@@H](Cc2ccccc2)NC(=O)[C@@H](CO)NC(=O)c2ccc3c(c2)C(=O)OC32c3ccc(O)cc3Oc3cc(O)ccc32)cc1)C(=O)NCc1ccc(CC(=O)N[C@H](CC(C)C)C(=O)N[C@H](CCCCN)C(=O)N[C@@H](CC(C)C)C(=O)NCc2ccc(CC(=O)N[C@H](Cc3c[nH]c4ccccc34)C(=O)N[C@H](CCCNC(=N)N)C(=O)N[C@@H](CC(C)C)C(=O)NCc3ccc(CC(=O)N[C@H](C)C(=O)N[C@H](CCCCN)C(=O)N[C@@H](Cc4ccccc4)C(=O)NCc4ccc(CC(=O)N[C@H](Cc5c[nH]cn5)C(=O)N[C@H](CCCCN)C(=O)N[C@@H](Cc5ccccc5)C(=O)NCc5ccc(CC(=O)N[C@H](C)C(=O)N[C@H](CCCNC(=N)N)C(=O)N[C@@H](CC(C)C)C(=O)NCc6ccc(CC(=O)N[C@@H](C(=O)N[C@H](Cc7c[nH]cn7)C(=O)N[C@@H](CC(C)C)C(=O)NCc7ccc(CC(=O)N[C@H](Cc8ccccc8)C(=O)N[C@H](CCCNC(=N)N)C(=O)NCC(=O)NCc8ccc(CC(N)=O)cc8)cc7)[C@H](C)O)cc6)cc5)cc4)cc3)cc2)cc1 [IL6-65-5] (5FAM-[dS][dF]F[X1]G[dR]L[X1][dL][dK]L[X1][dW][dR]L[X1][dA][dK]F[X1][dH][dK]F[X1][dA][dR]L[X1][dT][dH]L[X1][dF][dR]G-{NHCH2C6H4(4-CH2CONH2)}) | – | 33 |
| CC(C)C[C@H](NC(=O)[C@@H](CCCNC(=N)N)NC(=O)CNC(=O)Cc1ccc(CNC(=O)[C@H](CC(C)C)NC(=O)[C@@H](CC(C)C)NC(=O)[C@@H](Cc2ccc(O)cc2)NC(=O)c2ccc3c(c2)C(=O)OC32c3ccc(O)cc3Oc3cc(O)ccc32)cc1)C(=O)NCc1ccc(CC(=O)N[C@H](CCCNC(=N)N)C(=O)N[C@H](CO)C(=O)N[C@@H](Cc2ccccc2)C(=O)NCc2ccc(CC(=O)N[C@H](Cc3ccccc3)C(=O)N[C@H](CCCNC(=N)N)C(=O)N[C@@H](C)C(=O)NCc3ccc(CC(=O)N[C@H](CCC(=O)O)C(=O)N[C@H](CCCCN)C(=O)N[C@@H](Cc4ccccc4)C(=O)NCc4ccc(CC(=O)N[C@H](CCC(=O)O)C(=O)N[C@H](CCCNC(=N)N)C(=O)N[C@@H](CC(C)C)C(=O)NCc5ccc(CC(=O)N[C@H](C)C(=O)N[C@H](CCCNC(=N)N)C(=O)N[C@@H](CC(C)C)C(=O)NCc6ccc(CC(=O)N7CCC[C@@H]7C(=O)N[C@H](CCCNC(=N)N)C(=O)N[C@@H](C)C(=O)NCc7ccc(CC(=O)N[C@H](Cc8ccc(O)cc8)C(=O)N[C@H](CCCNC(=N)N)C(=O)N[C@@H](Cc8ccccc8)C(=O)NCc8ccc(CC(N)=O)cc8)cc7)cc6)cc5)cc4)cc3)cc2)cc1 [IL6-65-7, Fluorescein-(D)Tyr-(D)Leu-(L)Leu-PAM-Gly-(D)Arg-(L)Leu-PAM-(D)Arg-(D)Ser-(L)Phe-PAM-(D)Phe-(D)Arg-(L)Ala-PAM-(D)Glu-(D)Lys-(L)Phe-PAM-(D)Glu-(D)Arg-(L)Leu-PAM-(D)Ala-(D)Arg-(L)Leu- PAM-(D)Pro-(D)Arg-(L)Ala-PAM-(D)Tyr-(D)Arg-(L)Phe-PAM] (5FAM-[dY][dL]L[X1]G[dR]L[X1][dR][dS]F[X1][dF][dR]A[X1][dE][dK]F[X1][dE][dR]L[X1][dA][dR]L[X1][dP][dR]A[X1][dY][dR]F-{NHCH2C6H4(4-CH2CONH2)}) | – | 210 |
| CC(C)C[C@H](NC(=O)[C@@H](CCCNC(=N)N)NC(=O)CNC(=O)Cc1ccc(CNC(=O)[C@H](CC(C)C)NC(=O)[C@@H](CC(C)C)NC(=O)[C@@H](Cc2ccc(O)cc2)NC(=O)c2ccc3c(c2)C(=O)OC32c3ccc(O)cc3Oc3cc(O)ccc32)cc1)C(=O)NCc1ccc(CC(=O)N[C@H](CCCNC(=N)N)C(=O)N[C@H](CO)C(=O)N[C@@H](Cc2ccccc2)C(=O)NCc2ccc(CC(=O)N3CCC[C@@H]3C(=O)N[C@H](CCCNC(=N)N)C(=O)N[C@H](C(=O)NCc3ccc(CC(=O)N[C@H](Cc4c[nH]c5ccccc45)C(=O)N[C@H](CCCNC(=N)N)C(=O)N[C@H](C(=O)NCc4ccc(CC(=O)N[C@H](CC(N)=O)C(=O)N[C@H](CCCNC(=N)N)C(=O)N[C@@H](Cc5ccccc5)C(=O)NCc5ccc(CC(=O)N[C@H](CCC(=O)O)C(=O)N[C@H](Cc6ccc(O)cc6)C(=O)N[C@H](C(=O)NCc6ccc(CC(=O)N7CCC[C@@H]7C(=O)N[C@H](CCCNC(=N)N)C(=O)N[C@@H](C)C(=O)NCc7ccc(CC(=O)N[C@H](Cc8ccc(O)cc8)C(=O)N[C@H](CCCNC(=N)N)C(=O)N[C@@H](Cc8ccccc8)C(=O)NCc8ccc(CC(N)=O)cc8)cc7)cc6)C(C)C)cc5)cc4)C(C)C)cc3)C(C)C)cc2)cc1 [IL6-65-11, Fluorescein-(D)Tyr-(D)Leu-(L)Leu-PAM-Gly-(D)Arg-(L)Leu-PAM-(D)Arg-(D)Ser-(L)Phe-PAM-(D)Pro-(D)Arg-(L)Val-PAM-(D)Trp-(D)Arg-(L)Val-PAM-(D)Asn-(D)Arg-(L)Phe-PAM-(D)Glu-(D)Tyr-(L)Val- PAM-(D)Pro-(D)Arg-(L)Ala-PAM-(D)Tyr-(D)Arg-(L)Phe-PAM] (5FAM-[dY][dL]L[X1]G[dR]L[X1][dR][dS]F[X1][dP][dR]V[X1][dW][dR]V[X1][dN][dR]F[X1][dE][dY]V[X1][dP][dR]A[X1][dY][dR]F-{NHCH2C6H4(4-CH2CONH2)}) | – | 25 |
